Source: PubChem BioAssay (NCI)
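Exposure lasted 48 hours, with cells grown in 96-well plates and compounds tested at five concentrations. GI50 is the concentration that inhibits growth by half. At the TGI there is no net growth.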

Assays:
Experiment in all cases: growth of human tumour cells (NCI), 48 h
[1] = test system: 786-0 renal
[2] = test system: A498 renal
[3] = test system: A549 NSCLC
[4] = test system: ACHN renal
[5] = test system: BT-549 breast
[6] = test system: CAKI-1 renal
[7] = test system: CCRF-CEM leukemia
[8] = test system: COLO 205 colon
[9] = test system: DU-145 prostate
[10] = test system: EKVX NSCLC
[11] = test system: HCC-2998 colon
[12] = test system: HCT-116 colon
[13] = test system: HCT-15 colon
[14] = test system: HL-60(TB) leukemia
[15] = test system: HOP-62 NSCLC
[16] = test system: HOP-92 NSCLC
[17] = test system: HS 578T breast
[18] = test system: HT29 colon
[19] = test system: IGROV1 ovarian
[20] = test system: K-562 leukemia
[21] = test system: KM12 colon
[22] = test system: LOX IMVI melanoma
[23] = test system: M14 melanoma
[24] = test system: MALME-3M melanoma
[25] = test system: MCF7 breast
[26] = test system: MDA-MB-231 breast
[27] = test system: MDA-MB-435
[28] = test system: MOLT-4 leukemia
[29] = test system: NCI-H226 lung
[30] = test system: NCI-H23 lung
[31] = test system: NCI-H460 lung
[32] = test system: NCI-H522 lung
[33] = test system: NCI/ADR-RES ovarian
[34] = test system: OVCAR-3 ovarian
[35] = test system: OVCAR-4 ovarian
[36] = test system: OVCAR-5 ovarian
[37] = test system: OVCAR-8 ovarian
[38] = test system: PC-3 prostate
[39] = test system: RPMI-8226 leukemia
[40] = test system: RXF 393 renal
[41] = test system: SF-268 CNS
[42] = test system: SF-295 CNS
[43] = test system: SF-539 CNS
[44] = test system: SK-MEL-2 melanoma
[45] = test system: SK-MEL-28 melanoma
[46] = test system: SK-MEL-5 melanoma
[47] = test system: SK-OV-3 ovarian
[48] = test system: SN12C renal
[49] = test system: SNB-19 CNS
[50] = test system: SNB-75 CNS
[51] = test system: SR leukemia
[52] = test system: SW-620 colon
[53] = test system: T-47D breast
[54] = test system: TK-10 renal
[55] = test system: U251 CNS
[56] = test system: UACC-257 melanoma
[57] = test system: UACC-62 melanoma
[58] = test system: UO-31 renal

SMILES: CCCCC(=O)OCC1OC(n2cnc3c(=S)nc[nH]c32)C(OC(=O)CCCC)C1OC(=O)CCCC (stereo not drawn)
- GI50 [1]: 2.24 µM
- TGI [1]: > 100 µM
- GI50 [2]: 9.54 µM
- TGI [2]: > 96.1 µM
- GI50 [3]: > 25.3 µM
- TGI [3]: > 100 µM
- GI50 [4]: 2.59 µM
- TGI [4]: > 100 µM
- GI50 [5]: 1.11 µM
- TGI [5]: > 28.7 µM
- GI50 [6]: 2.26 µM
- TGI [6]: > 100 µM
- GI50 [7]: 3.25 µM
- TGI [7]: > 100 µM
- GI50 [8]: 1.37 µM
- TGI [8]: 5.18 µM
- GI50 [9]: 0.636 µM
- TGI [9]: > 100 µM
- TGI [10]: > 100 µM
- GI50 [11]: 0.565 µM
- TGI [11]: > 36.7 µM
- GI50 [12]: 2.15 µM
- TGI [12]: > 100 µM
- GI50 [13]: 1.56 µM
- TGI [13]: > 100 µM
- GI50 [14]: 3.55 µM
- TGI [14]: > 100 µM
- GI50 [15]: 1.01 µM
- TGI [15]: > 100 µM
- GI50 [16]: 1 µM
- TGI [16]: > 84.5 µM
- GI50 [17]: > 35.4 µM
- TGI [17]: > 100 µM
- GI50 [18]: 3.64 µM
- TGI [18]: > 100 µM
- GI50 [19]: 3.86 µM
- TGI [19]: > 39.4 µM
- GI50 [20]: 2.03 µM
- TGI [20]: > 100 µM
- GI50 [21]: 1.48 µM
- TGI [21]: > 100 µM
- GI50 [22]: 1.11 µM
- TGI [22]: > 100 µM
- GI50 [23]: 0.779 µM
- TGI [23]: 10.7 µM
- GI50 [24]: > 22.1 µM
- TGI [24]: > 100 µM
- GI50 [25]: 1.13 µM
- TGI [25]: > 100 µM
- GI50 [26]: 5.22 µM
- TGI [26]: > 100 µM
- GI50 [27]: 2.21 µM
- TGI [27]: > 100 µM
- GI50 [28]: 5.74 µM
- TGI [28]: > 100 µM
- TGI [29]: > 100 µM
- GI50 [30]: 1.36 µM
- TGI [30]: > 100 µM
- GI50 [31]: 4.38 µM
- TGI [31]: > 100 µM
- GI50 [32]: 0.498 µM
- TGI [32]: 60.2 µM
- GI50 [33]: 3.51 µM
- TGI [33]: > 100 µM
- GI50 [34]: 1.01 µM
- TGI [34]: > 36.3 µM
- GI50 [35]: 0.441 µM
- TGI [35]: > 100 µM
- GI50 [36]: 3.65 µM
- TGI [36]: > 100 µM
- GI50 [37]: 3.05 µM
- TGI [37]: > 100 µM
- GI50 [38]: 2.21 µM
- TGI [38]: > 100 µM
- GI50 [39]: 5.81 µM
- TGI [39]: > 100 µM
- GI50 [40]: > 71.4 µM
- TGI [40]: > 100 µM
- GI50 [41]: 3.96 µM
- TGI [41]: > 100 µM
- GI50 [42]: 1.54 µM
- TGI [42]: > 26.4 µM
- GI50 [43]: 2.07 µM
- TGI [43]: > 62 µM
- GI50 [44]: 1.61 µM
- TGI [44]: > 78.7 µM
- GI50 [45]: 57.4 µM
- TGI [45]: > 100 µM
- GI50 [46]: 1.76 µM
- TGI [46]: > 46.5 µM
- GI50 [47]: 0.636 µM
- TGI [47]: > 80.3 µM
- GI50 [48]: 2.78 µM
- TGI [48]: > 100 µM
- GI50 [49]: 17.9 µM
- TGI [49]: > 100 µM
- GI50 [50]: 0.213 µM
- GI50 [51]: 7.5 µM
- TGI [51]: > 100 µM
- GI50 [52]: 1.51 µM
- TGI [52]: > 100 µM
- GI50 [53]: 1.17 µM
- TGI [53]: > 59 µM
- GI50 [54]: 0.608 µM
- TGI [54]: > 100 µM
- GI50 [55]: 13.4 µM
- TGI [55]: > 100 µM
- GI50 [56]: 11.9 µM
- TGI [56]: > 100 µM
- GI50 [57]: 0.899 µM
- TGI [57]: > 100 µM
- GI50 [58]: 2.2 µM
- TGI [58]: > 100 µM
